Results on 1 compound are retold here after article PMC7689096, “Cyclizing Painkillers: Development of Backbone-Cyclic TAPS Analogs” (Frontiers in Chemistry, 2020).

Data set [1] concerns the target T1, δ (DOP, OPRD2) opioid receptor (Mus musculus, UniProt P32300).
T1 construct: NG-10815 cells which express significant endogenous levels of δ opioid receptors; host or cells: NG-10815 (NG108-15) mouse N18TG2 neuroblastoma x rat C6-BU-1 glioma hybrid cells
The data set can be described thus: DOP opioid receptor functional agonism in NG-10815 cells. The format is cell-based, rat. The settings on record: At 10^−6 M, percent of control specific agonist response. How it is done:
(§1) Peptides were tested for μ (MOP, OPRM1) and δ (DOP, OPRD2) opioid receptor activation functional agonism and antagonism using CHO cells expressing human recombinant μ receptors and NG-10815 cells which express significant endogenous levels of δ opioid receptors. The cultures were incubated for 10 min at 37°C followed by impedance measurements of CHO cells and cAMP was assayed by the HTRF method using NG-10815 cells, according to CEREP standard assay protocols. The respective reference, non-peptide small molecules were tested concurrently with the TAPS analogs. The agonist compounds were: DPDPE (selective agonist of DOP receptor) and DAMGO (high MOP receptor specificity) and the antagonist compounds were: Naltrindole (selective DOP receptor antagonist) and CTOP (MOP receptor antagonist). […] The results are expressed as a percentage of respective control-specific response. […] These findings indicate that TAPS cyclic peptides are MOP selective full agonists. […] The cyclic TAPS peptide had lower activity than the linear parent TAPS peptide (90 ± 5%) – a finding that can be attributed to their restricted conformation relative to the flexible linear peptide conformation.
Evaluation of the Agonist Activity of Compounds at the Rat delta2 Receptor Endogenously Expressed in NG-10815 Cells, Determined by Measuring Their Effects on Impedance Modulation Using the CellKey (CDS) Detection Method
Cells are seeded onto 96-well plate coated with fibronectin at 2 × 10^5 cells/well in HBSS buffer (Invitrogen) + 20 mM HEPES (Invitrogen) with 0.1% BSA and allowed to equilibrate for 60 min at 37°C before the start of the experiment. Plates are placed onto the system and measurements are made at a temperature of 37°C. […] Impedance measurements are monitored for 10 min after ligand addition. The standard reference agonist is DPDPE, which is tested in each experiment at several concentrations to generate a concentration-response curve from which its EC50 value is calculated.
The respective reference, non-peptide small molecules were tested concurrently with the TAPS analogs; Agonist compounds DPDPE ([D-Pen2,D-Pen5]enkephalin), selective agonist of DOP receptor at 2 × 10^−9 M and DAMGO ([D-Ala2, N-MePhe4, Gly-ol] enkephalin), high MOP specificity at 2.5 × 10^−9 M; Antagonist compounds: naltrindole 7-(cyclopropylmethyl)-6,7-dehydro-4,5α-epoxy-3,14-dihydroxy-6,7-2′,3′-indolomorphinan hydrochloride, selective DOP antagonist, 5 × 10^−10 M and CTOP (D-Phe-Cys-Tyr-D-Trp-Orn-Thr-Pen-Thr-NH2), MOP antagonist at 3.4 × 10^−7 M. Depending on the assay volume and solvent tolerance, the stock solutions were diluted to [100×], [333×] or [1,000×] in 100% DMEM solvent, then either added directly or further diluted to [10×] or [5×] in H2O or Hank's balanced salt solution (HBSS) before addition to the assay well (final solvent concentration kept constant). The cultures were incubated for 10 min at 37°C followed by impedance measurements using cellular dielectric spectroscopy of CHO cells and cAMP was assayed by homogeneous time resolved fluorescence (HTRF) method using NG-10815 cells, according to CEREP standard assay protocols (https://euroscreenfast.com/assays/opioid-orl1-camp-fast-0360c; https://euroscreenfast.com/assays/opioid-op1-delta-camp-fast-0379c). […]

Data set [2] addresses T1, δ (DOP, OPRD2) opioid receptor. Nature of the data set: DOP opioid receptor functional antagonism in NG-10815 cells. Type of data set: cell-based, rat. The settings on record: Between 10^−9-10^−6 M, percent inhibition of control specific agonist response. The procedure:
as §1
The respective reference, non-peptide small molecules were tested concurrently with the TAPS analogs; Agonist compounds DPDPE ([D-Pen2,D-Pen5]enkephalin), selective agonist of DOP receptor at 2 × 10^−9 M and DAMGO ([D-Ala2, N-MePhe4, Gly-ol] enkephalin), high MOP specificity at 2.5 × 10^−9 M; Antagonist compounds: naltrindole 7-(cyclopropylmethyl)-6,7-dehydro-4,5α-epoxy-3,14-dihydroxy-6,7-2′,3′-indolomorphinan hydrochloride, selective DOP antagonist, 5 × 10^−10 M and CTOP (D-Phe-Cys-Tyr-D-Trp-Orn-Thr-Pen-Thr-NH2), MOP antagonist at 3.4 × 10^−7 M. Depending on the assay volume and solvent tolerance, the stock solutions were diluted to [100×], [333×] or [1,000×] in 100% DMEM solvent, then either added directly or further diluted to [10×] or [5×] in H2O or Hank's balanced salt solution (HBSS) before addition to the assay well (final solvent concentration kept constant). The cultures were incubated for 10 min at 37°C followed by impedance measurements using cellular dielectric spectroscopy of CHO cells and cAMP was assayed by homogeneous time resolved fluorescence (HTRF) method using NG-10815 cells, according to CEREP standard assay protocols (https://euroscreenfast.com/assays/opioid-orl1-camp-fast-0360c; https://euroscreenfast.com/assays/opioid-op1-delta-camp-fast-0379c). The results (mean of three experiments) are expressed as a percent of control specific agonist response [(measured TAPS specific response/control specific agonist response) × 100] and as a percent inhibition of control specific agonist response [100 – (measured TAPS specific response/control specific agonist response) × 100] obtained in the presence of the TAPS compounds. Results showing a stimulation or an inhibition lower than 25% were considered not significant and mostly attributable to variability of the signal around the control level. Results showing a stimulation or an inhibition higher than 50% were considered to represent significant effects of the TAPS compounds.

Data set [3] can be described thus: Caco-2 permeability assay. (In general: Caco-2 monolayers are a common model of the intestinal barrier.)
A further data set deals with mice. The data set can be described thus: Mouse open field test (locomotor adverse effect).

Molecules are shown by their SMILES.

T1 sequence (P32300 whole entry): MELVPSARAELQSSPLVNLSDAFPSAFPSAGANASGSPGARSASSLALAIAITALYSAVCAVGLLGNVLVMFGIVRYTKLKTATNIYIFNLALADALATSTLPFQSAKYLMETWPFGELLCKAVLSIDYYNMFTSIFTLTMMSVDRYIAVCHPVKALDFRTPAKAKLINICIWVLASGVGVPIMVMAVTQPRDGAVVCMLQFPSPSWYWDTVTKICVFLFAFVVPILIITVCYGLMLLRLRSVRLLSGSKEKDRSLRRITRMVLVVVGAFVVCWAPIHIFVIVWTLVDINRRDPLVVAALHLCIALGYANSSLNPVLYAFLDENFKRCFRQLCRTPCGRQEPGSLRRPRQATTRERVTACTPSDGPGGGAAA
Description for mice: In the mouse open field test (OF test), the distance and speed the animal moves over a 5-min time period is recorded, giving an indication as to whether a medication administered affected its locomotor activity. TAPS c(2-6) (5 or 15 mg/kg) was administered via IP administration and compared to morphine (5 mg/kg) and vehicle (PBS).
Male ICR mice (Harlan, Israel) 7 weeks of age (25–27) were used for all pharmacodynamic experiments after 5-day acclimation to laboratory conditions. Animals were allowed free access to food (standard commercial, sterile rodent diet) and water throughout the experiments and kept in automatically controlled environmental conditions for temperature and humidity levels in a 12-h dark-light cycle.
Animals were placed in the OF apparatus for a period of 5 min. The apparatus utilizes computerized monitoring which measures the speed and distance the animal walks during the measurement period. […] Baseline measurements were taken 1 day before initiation of the experiments and again at 0.5, 1.5, 3, and 5 h post injection.

One may read the Papp as a coefficient for how fast a substance crosses the barrier. Low values mean slow passage, high ones fast passage. As a reminder, the Papp A→B is how fast a substance crosses the layer from the apical side. In general, Papp B→A refers to how fast a substance crosses the layer from the basolateral side. Regarding `N=C(N)NCCC[C@@H]1C(=O)N[C@@H](Cc2ccccc2)C(=O)N(CC(N)=O)CCNC(=O)NCCCCCCN1C(=O)[C@@H](N)Cc1ccc(O)cc1` [TAPS c(2-6)], in data set [1], the “DOP agonist (%)” value is recorded as 11%. In data set [2], the “DOP antagonist (%)” value was determined as 6%. In data set [3], the Papp amounted to 11 ×10⁻⁶ cm/s, the Papp A→B was determined as 0.038 ×10⁻⁶ cm/s and the Papp B→A was found to be 0.05 ×10⁻⁶ cm/s. In addition, the “locomotor effect (distance and speed of movement over 5 min)” value in the data set on mice (5 mg/kg IP) is listed as “no locomotor effect”. Besides, in the data set with mice (15 mg/kg IP), the “locomotor effect (distance and speed of movement over 5 min)” value is “no locomotor effect”.
